Assay results taken from patent US10918648B2, “Estrogen receptor modulator combinations” (The Regents of the University of California, priority 2016, dated 2021).

Tests used:
[1] = system: MAPK: ERK-1 (p44) and ERK-2 (p42); experiment: Estrogen-induced MAPK phosphorylation, Western blot in MCF-7 cells; format: cell-based, human; settings: MCF-7 parent cells, 1 nM estradiol (E2); antagonists pre-incubated at 1000 nM; FIG. 7A
Description: ERD inhibition of phosphorylation of MAPK, at both extracellular signal-regulated kinases ERK-1 (p44) and ERK-2 (p42) and downstream effects. […] Thus, we measured estrogen-induced phosphorylation of MAPK by established methods (9,15,16). Briefly, MCF-7 parental cells were estrogen deprived for 48 hrs, then treated with 1 nM estradiol-1713 in the presence of new compounds (10 nM-10 μM) to be tested for antagonist activity. After treatments, cell lysates were separated by SDS-PAGE followed by Western blot using a polyclonal antibody directed to phospho-p44/p42 MAP kinase (Thr202/Tyr204) (Cell Signaling). Immunodetection with antibody against total p44/p42 (Cell Signaling) was done as a control for gel loading. […] ERD S15 was as effective as fulvestrant in inhibiting the rapid estrogen-induced MAPK phosphorylation in breast tumor cells in vitro. […] E2 but not vehicle (CN) induced rapid phosphorylation of ERK-1 (p44) and ERK-2 (p42). This activation was prevented when cells were pre-incubated with 1000 nM ICI 182,780 (ICI; Faslodex) or 1000 nM compound S15 in the presence of estradiol (E2).

A549 NSCLC cells = experiment: NSCLC cell proliferation in vitro (MTS assay); format: cell-based, human
[2] = system: MCF-7 breast cancer cells; experiment: MCF-7 breast cancer cell proliferation (BrdU ELISA) in presence of estradiol-17β; format: cell-based, human; settings: Homo sapiens, MCF7; 72 hrs in the presence of 1 nM estradiol-17β, BrdU ELISA; read-out: IC50 for inhibition of cell proliferation, MCF-7
Description: In experiments to assess potential proliferative effects of novel estrogen receptor ligands, human breast cancer cells were grown in phenol red-free, estrogen-free media with 1% dextran-coated charcoal-treated (DCC)-fetal bovine serum (FBS) for 48 hrs (15,44), then treated with either 1 μM or 50 μM doses of estrogen receptor antagonists in the presence of 1 nM estradiol-17β. Cell counts and viability tests (Trypan blue) were done every 24 hr for 3 days. After 72 hr, proliferation was assessed using the BrdU Cell proliferation ELISA (Roche). Cell numbers were also assessed initially by cell counts to confirm ELISA data. Each antiestrogen was tested at least in three different experiments.
In order to assess the antitumor action of novel estrogen receptor antagonists, we cultured human MCF-7 breast cancer cells with known expression of ERα. Cells were grown in 1% DCC-FBS for 48 hr and then treated with vehicle control or either 1 μM or 50 μM concentrations of antiestrogens JD 101-160 or the pure antiestrogen fulvestrant (FAS), all in the presence of 1 nM estradiol-170. […] Shown in FIG. 2A are results from MCF-7 cells grown in 1% DCC-FBS for 48 hr and then treated with vehicle control, 1 nM estradiol-170 and either 1 μM or 50 μM concentrations of antiestrogens JD 101-160 or the known pure antiestrogen fulvestrant (FAS) in the presence of 1 nM estradiol-170. Cell proliferation is expressed as percentage of that determined in the 1 nM estradiol-170-treated control group.
(§1) Cell proliferation assays: breast and lung tumor cells (between […]) were plated in 96 well plates using their respective medium with 10% FBS. For experiments using estradiol-17β, cells were rinsed with PBS and incubated with phenol redfree medium with 1% DCC-FBS for 48 hours as described before (24,25). Cells were then treated with different concentrations of SERDs ranging between 0.0001-100 μM. […] Cell counts and viability tests (Trypan blue) were done every 24 hr for 3 days. After 72 hr, proliferation was assessed with the MTS Assay CELLTITER 96® Aqueous Cell Proliferation Assay (Promega) or the Cell Proliferation ELISA, BrdU colorimetric assay (Roche). For the MTS, the absorbance of the formazan product was measured at 490 nanometer using the iMARK microplate reader from BIORAD. The BrdU ELISA assay is based on detection of BrdU incorporated into the genomic DNA of proliferating cells and an anti-BrdU antibody, the reaction product was quantified by measuring the absorbance at 370 nanometers using iMARK microplate reader from BIORAD. Cell numbers were also assessed initially by cell counts to confirm MTS/BrdU data. Experiments were done at least three times to confirm data.

MCF-7/HER-2 cells = settings: MCF-7 cells with HER2-overexpression, xenografts in nude mice; cited from earlier work
MCF-7 parental cells = settings: MCF-7 parental xenografts in nude mice; cited from earlier work
H1975 NSCLC cells = experiment: NSCLC cell proliferation in vitro (MTS assay); format: cell-based, human; settings: Homo sapiens, NCI-H1975, SERD alone, 72 hours, estrogen-depleted phenol red-free medium with 5% DCC-FBS, read-out: IC50 for inhibition of NSCLC cell proliferation, H1975
Description: (§2) Cell culture: Human breast and non-small cell lung cancer cells (MCF7, ZR75-1, MDAMB231, A549, H23, H1975, […]) were from ATCC. MCF7-HER2 were a kind gift of Dr. Dennis Slamon (23). Cell lines were routinely maintained in RPMI 1640 or DMEM medium with 10% fetal bovine serum (FBS) (Sigma-Aldrich) and 1% Antibiotic-Antimycotic solution 100× (Mediatech, Herndon, Va.). When indicated, for estrogen-free conditions, media was changed 48 h before experiments to phenol-red free RPMI 1640/DMEM with 1% dextran-coated, charcoal-treated (DCC)-FBS (24,25). Otherwise experiments were performed in phenol-red free RPMI 1640/DMEM medium with 5% DCC-FBS.
as §1

H2122 NSCLC cells = experiment: NSCLC cell proliferation in vitro (MTS assay); format: cell-based, human; settings: Homo sapiens, NCI-H2122, SERD alone, 72 hours, estrogen-depleted phenol red-free medium with 5% DCC-FBS, read-out: IC50 for inhibition of NSCLC cell proliferation, H2122
Description: as §2, §1

Rb serine-780 = Rb serine-780 phosphorylation, Western blot in A549 cells; format: cell-based, human; settings: 24 h, 1% DCC-FBS, 1 nM E2, 1 nM androstenedione, 10 nM testosterone, 10 μM letrozole, 100 nM palbociclib, FIG. 4C
Description: FIG. 4C. […] Cells were treated 24 h in phenol red-free RPMI with 1% DCC-FBS with vehicle control (CON), 1 nM estradiol-17β (E2), 1 nM androstenedione (And), 10 nM testosterone (Tes), 10 μM letrozole (AI), 100 nM palbociclib (Plbo) or both Plbo+AI. After 24 hr, cell lysates subjected to Western blot with antibody to phosphoserine-780 Rb or total Rb (Cell Signaling) (20). GAPDH is used as loading control.
To investigate the antitumor efficacy of CDK 4/6 inhibitor palbociclib in NSCLC cells, we assessed the effects of palbociclib alone and in combination with the hormonal therapeutic letrozole (see FIGS. 4B and 5B). The potential mechanism of action of palbociclib and letrozole in NSCLC cells was investigated by assay of the effects of these agents alone and combined on phosphorylation of Rb serine-780

cyclin D1 = experiment: Cyclin D1 expression, Western immunoblot in A549 NSCLC cells; format: cell-based, human; settings: 24 h, 1% DCC-FBS, letrozole 10 μM, FIG. 5B
Description: FIG. 5B. […] Cells were treated 24 h in phenol red-free RPMI with 1% DCC-FBS. Control (Con), estradiol-17β (E2; 1 nM), androstenedione (And; 1 nM), testosterone (Tst; 10 nM), letrozole (AI; 10 μM) and palbociclib (Plbo; 1 μM) were used in this experiment. GADPH is used as a loading control (20).

Row | SMILES | phosphorylation of MAPK (ERK-1 p44 and ERK-2 p42) [1] | IC50 (A549 NSCLC cells; Homo sapiens, A549, SERD alone, 72 hours, estrogen-depleted phenol red-free medium with 5% DCC-FBS, MTS assay, read-out: IC50 for inhibition of NSCLC cell proliferation, A549) | IC50 [2] | sensitivity of MCF-7/HER-2 xenografts (MCF-7/HER-2 cells) | growth of parent tumors (xenografts) (MCF-7 parental cells) | IC50 (H1975 NSCLC cells) | IC50 (H2122 NSCLC cells) | inhibition of NSCLC cell proliferation (A549 NSCLC cells; A549, 72 hrs, single agents and palbociclib (10 or 100 nM)/letrozole (10 μM), FIG. 6B) | phosphorylation of Rb serine-780 (Rb serine-780) | cyclin D1 expression (cyclin D1)
1 | C[C@]12CC[C@@H]3c4ccc(O)cc4C[C@@H](CCCCCCCCC[S+]([O-])CCCC(F)(F)C(F)(F)F)[C@H]3[C@@H]1CC[C@@H]2O (stereo partly shown) [FULVEST, fulvestrant, reference compound] | prevented | 4160 nM | 1110 nM | partially sensitive | suppressed | 1880 nM | 1290 nM |  |  | 
2 | N#Cc1ccc(C(c2ccc(C#N)cc2)n2cncn2)cc1 [letrozole] |  |  |  |  |  |  |  | dose-dependent inhibition | block | reduces cyclin D1 expression
